Test results reported in publication PMC12365925, “Structural insights into a bacterial terpene cyclase fused with haloacid Dehalogenase-like phosphatase” (Chemical Science, 2025).

Target: T1, AsDMS (wild-type drimenol synthase) (Aquimarina spongiae, UniProt A0A1M6CXF0)
T1 construct: gene SAMN04488508_102320; wild-type, bifunctional N-terminal HAD and C-terminal TCbeta domains; dimer by gel filtration
Assay: steady-state kinetics of dephosphorylation
Assay type: biochemical
Details: HAD domain phosphatase site, Mg2+-dependent

T1 sequence (A0A1M6CXF0 entry or part of it): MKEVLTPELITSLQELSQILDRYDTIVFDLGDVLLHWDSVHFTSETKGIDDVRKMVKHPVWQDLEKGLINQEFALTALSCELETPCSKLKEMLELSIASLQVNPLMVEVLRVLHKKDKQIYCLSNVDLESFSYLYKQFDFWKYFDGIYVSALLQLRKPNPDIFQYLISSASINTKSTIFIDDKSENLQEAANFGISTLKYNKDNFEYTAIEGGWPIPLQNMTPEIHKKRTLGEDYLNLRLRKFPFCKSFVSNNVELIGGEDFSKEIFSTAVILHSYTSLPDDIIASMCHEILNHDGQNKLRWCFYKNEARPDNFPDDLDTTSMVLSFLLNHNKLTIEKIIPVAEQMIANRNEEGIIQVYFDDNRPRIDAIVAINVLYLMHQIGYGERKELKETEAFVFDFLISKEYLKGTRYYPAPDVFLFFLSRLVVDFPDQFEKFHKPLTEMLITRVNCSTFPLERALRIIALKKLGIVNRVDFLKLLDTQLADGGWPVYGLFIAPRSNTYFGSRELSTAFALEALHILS

CC1=CC[C@H]2C(C)(C)CCC[C@]2(C)[C@H]1COP(=O)(O)O [compound 3, drimenyl monophosphate]
Km: 5.81 ± 0.81 µM
